How the values were obtained:
Chlamydia Pneumoniae = details: reported; cited from earlier work
[1] = system: cervical/lumbosacral disc disease; test: Clinical injection/arthroscopic application of azithromycin with liposome in disc disease; type: in vivo, human; details: two occasions, applied with a liposome and another anti-inflammatory at surgical arthroscopy of the intervertebral disc
From the text: The therapy of the present invention was also observed to be effective in clinical treatment of cervical/lumbosacral disc disease.

[2] = system: severe acute lower back pain; details: short-term oral treatment; effect not seen three or so days after onset; cited from earlier work
phospholipase A2 = details: VanBebeke et al, 1994; cited from earlier work

| SMILES | potency against Chlamydia Pneumoniae (Chlamydia Pneumoniae) | relief of the patients' severe pain [1] | response of severe acute lower back pain [2] | effect on neurotoxic phospholipase A2 (phospholipase A2) |
| --- | --- | --- | --- | --- |
| Cc1c(F)c(N2CCNC(C)C2)cc2c1c(=O)c(C(=O)O)cn2C1CC1 (centres unmarked) [Grepafloxacin] | good potency | – | – | – |
| CC[C@H]1OC(=O)[C@H](C)[C@@H](O[C@H]2C[C@@](C)(OC)[C@@H](O)[C@H](C)O2)[C@H](C)[C@@H](O[C@@H]2O[C@H](C)C[C@H](N(C)C)[C@H]2O)[C@](C)(O)C[C@@H](C)CN(C)[C@H](C)[C@@H](O)[C@]1(C)O [azithromycin, azithromycin dihydrate] | – | good and immediate relief | respond dramatically | direct effect in mitigating the effects |
| CO[C@H]1/C=C/O[C@@]2(C)Oc3c(C)c(O)c4c(O)c(c(/C=N/N5CCN(C)CC5)c(O)c4c3C2=O)NC(=O)/C(C)=C\C=C\[C@H](C)[C@H](O)[C@@H](C)[C@@H](O)[C@@H](C)[C@H](OC(C)=O)[C@@H]1C [rifanpin] | good potency | – | – | – |
